This assay concerns the target T1, mouse PANX1 (pannexin1) (Mus musculus, UniProt Q9JIP4).
T1 construct: wildtype mouse PANX1, untagged, in His-tagged Salipro nanoparticles
In words: SPR on immobilized His-Salipro-mPANX1, empty particles as reference. It is filed as binding.

T1 sequence (Q9JIP4 whole entry): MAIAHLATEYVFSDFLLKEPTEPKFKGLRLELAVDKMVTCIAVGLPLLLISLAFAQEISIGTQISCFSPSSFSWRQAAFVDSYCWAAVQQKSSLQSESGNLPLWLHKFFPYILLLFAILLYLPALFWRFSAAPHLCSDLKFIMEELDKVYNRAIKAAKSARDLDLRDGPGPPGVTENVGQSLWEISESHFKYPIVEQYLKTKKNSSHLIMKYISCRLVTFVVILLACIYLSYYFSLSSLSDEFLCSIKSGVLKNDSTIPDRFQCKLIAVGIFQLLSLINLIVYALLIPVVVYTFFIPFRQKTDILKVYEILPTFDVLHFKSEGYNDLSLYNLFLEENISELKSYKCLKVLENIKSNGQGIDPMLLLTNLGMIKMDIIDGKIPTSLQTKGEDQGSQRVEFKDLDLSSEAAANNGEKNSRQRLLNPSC

Broadly, the Kd is the equilibrium constant for the complex coming apart. A higher Kd goes with weaker binding. Compound `CC(=O)S[C@@H]1CC2=CC(=O)CC[C@]2(C)[C@H]2CC[C@@]3(C)[C@@H](CC[C@@]34CCC(=O)O4)[C@H]12` [spironolactone] registered a Kd of 160 µM.

For the origin of these results see PMC9876986, “Direct cell extraction of membrane proteins for structure–function analysis” (Scientific Reports, 2023).
